From US9707244B2, “Compositions and methods for treating conditions that affect epidermis” (Gencia Corporation, priority 2013, dated 2017)

test system: EpiDerm Full Thickness 400 (EFT-400) tissues; assay: Mattek full-thickness skin model (EFT-400) skin thickness; format: cell-based; details: 14 days; average over the three corticosteroids (100 nM dexamethasone, 50 nM betamethasone, 10 nM Clobetasol); p<0.001
Method: Following the protocol of Schoepe, we used the FTSM model to determine if co-treatment with Mitocreatine would reduce the loss in skin thickness produced by glucocorticoids.
2.5 mL of EpiDerm Full Thickness 400 (EFT-400) medium was dispensed into each well of the four 6-well plates aseptically in the tissue culture hood. The plates containing the EFT-400 tissues were removed from their plastic packaging and transferred using sterile forceps into the 6-well plates containing the 2.5 mL of EFT-400 media, making sure that no agarose adheres to the insert and that the media makes full contact with the underside of the tissue insert membrane (no air bubbles under the insert). The apical surface of the tissue should remain exposed to air (no media should be added to the side of the insert).
The tissues were equilibrated overnight at 37° C., 5% CO2. Treatment conditions are listed below in Table 5.
Day 2-13: The plates were visually examined and the media containing the test compounds was replenished each day.
Day 15: The inserts were dislodged from the support and the tissue carefully removed from the support with a scalpel.
The tissues were placed in 50 mL conical tubes containing 10% phosphate buffered formalin and sent for sectioning, histological processing and H&E staining Slides were visualized using a Leica Stereoscope equipped with a digital camera. Images were acquired and measured using ExoLabs software. Data was tabulated in Excel and the results were analyzed.

Question: `C[C@H]1C[C@H]2[C@@H]3CCC4=CC(=O)C=C[C@]4(C)[C@@]3(F)[C@@H](O)C[C@]2(C)[C@@]1(O)C(=O)CO` [betamethasone] was tested. Which “reduction in skin thickness (FTSM)” value did it give?
Answer: 26%

Question: Which “reduction in skin thickness (FTSM)” value does the source give for `C[C@@H]1C[C@H]2[C@@H]3CCC4=CC(=O)C=C[C@]4(C)[C@@]3(F)[C@@H](O)C[C@]2(C)[C@@]1(O)C(=O)CO` [dexamethasone] here?
Answer: 26%

Question: Which “reduction in skin thickness (FTSM)” value does the source give for `C[C@H]1C[C@H]2[C@@H]3CCC4=CC(=O)C=C[C@]4(C)[C@@]3(F)[C@@H](O)C[C@]2(C)[C@@]1(O)C(=O)CCl` [Clobetasol] here?
Answer: 26%
